Assay [1] concerns the target T1, human MetAP2 enzyme (Homo sapiens, UniProt P50579). Kind of assay: MetAP2 enzyme assay, enzyme complexed with manganese ions. Particulars: MetAP2 Mn pIC50, MetAP2 enzyme complexed with manganese ions; Met-AMC substrate at Km.
In assay [2] the target is T1, human MetAP2 enzyme. The assay is described as follows: MetAP2 enzyme assay, enzyme complexed with cobalt ions. Particulars: MetAP2 Co pIC50, MetAP2 enzyme complexed with cobalt ions; Met-AMC substrate at Km.

Structures are written as SMILES.

T1 sequence (P50579 whole entry): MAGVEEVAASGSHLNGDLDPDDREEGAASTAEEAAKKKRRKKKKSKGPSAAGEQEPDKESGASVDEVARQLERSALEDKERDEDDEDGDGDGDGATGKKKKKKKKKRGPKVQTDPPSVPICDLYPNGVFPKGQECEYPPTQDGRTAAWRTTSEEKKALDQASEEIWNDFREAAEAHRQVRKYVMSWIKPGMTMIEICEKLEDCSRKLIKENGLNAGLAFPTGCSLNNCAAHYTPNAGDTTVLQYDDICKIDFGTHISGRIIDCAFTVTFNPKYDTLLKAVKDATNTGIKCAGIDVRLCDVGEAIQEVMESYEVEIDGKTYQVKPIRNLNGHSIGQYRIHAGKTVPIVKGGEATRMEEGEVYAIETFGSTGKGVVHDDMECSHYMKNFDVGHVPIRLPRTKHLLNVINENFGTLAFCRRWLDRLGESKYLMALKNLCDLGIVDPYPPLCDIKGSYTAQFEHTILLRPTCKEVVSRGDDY

Usually IC50 stands for the concentration that gives 50% inhibition. High values mean weaker potency in that assay, low ones greater potency in that assay. For `Oc1cccnc1-c1cc(C(F)(F)F)cc2[nH]ncc12` [Example 214, 2-(6-(trifluoromethyl)-1H-indazol-4-yl)pyridin-3-ol], the IC50 against human MetAP2 enzyme [1] was 15.8 nM; against human MetAP2 enzyme [2] it was 501 nM.
Take `Cn1cc(C(=O)NCC#N)cc(-c2cc(C(F)(F)F)cc3[nH]ncc23)c1=O` [Example 354, N-(cyanomethyl)-1-methyl-6-oxo-5-(6-(trifluoromethyl)-1H-indazol-4-yl)-1,6-dihydropyridine-3-carboxamide]: the values for the half-inhibitory concentration (IC50) against human MetAP2 enzyme [1] and on human MetAP2 enzyme [2] were 6.31 nM and 316 nM, respectively.
The like results for `COc1ccc(C(=O)N2CCOCC2)cc1-c1cc(C(F)(F)F)cc2[nH]ncc12` [Example 267, (4-methoxy-3-(6-(trifluoromethyl)-1H-indazol-4-yl)phenyl)(morpholino)methanone] were, in that order, 10 nM and 39.8 nM.
The like results for `COc1cc(C(N)=O)ccc1-c1cc(C(F)(F)F)cc2[nH]ncc12` [Example 306, 3-methoxy-4-(6-(trifluoromethyl)-1H-indazol-4-yl)benzamide] were, in that order, 6.31 nM and 15.8 nM.
For `CN1CCOc2cc(-c3cc(C(F)(F)F)cc4[nH]ncc34)cnc21` [Example 122, 4-methyl-7-(6-(trifluoromethyl)-1H-indazol-4-yl)-3,4-dihydro-2H-pyrido[3,2-b][1,4]oxazine], the IC50 at human MetAP2 enzyme [1] was 12.6 nM; on human MetAP2 enzyme [2], 39.8 nM.
On to `COc1ncc(-c2cc(C(F)(F)F)cc3[nH]ncc23)cc1C(=O)NCCO` [Example 285, N-(2-hydroxyethyl)-2-methoxy-5-(6-(trifluoromethyl)-1H-indazol-4-yl)nicotinamide], for which the half-maximal inhibitory concentration (IC50) is 3.98 nM against human MetAP2 enzyme [1] and 50.1 nM against human MetAP2 enzyme [2].
In the case of `FC(F)(F)c1cc(-c2cnc(N3CCOCC3)cn2)c2cn[nH]c2c1` [Example 94, 4-(5-(6-(trifluoromethyl)-1H-indazol-4-yl)pyrazin-2-yl)morpholine], the IC50 was 3.16 nM against human MetAP2 enzyme [1] and 63.1 nM against human MetAP2 enzyme [2].
The corresponding values for `Cc1ncsc1-c1cc(C(F)(F)F)cc2[nH]ncc12` [Example 177, 4-methyl-5-(6-(trifluoromethyl)-1H-indazol-4-yl)thiazole] are 3.98 nM and 50.1 nM.
With `Cc1nn(CC#N)c(C)c1-c1cc(C(F)(F)F)cc2[nH]ncc12` [Example 170, 2-(3,5-dimethyl-4-(6-(trifluoromethyl)-1H-indazol-4-yl)-1H-pyrazol-1-yl)acetonitrile], the figures for the half-inhibitory concentration (IC50) against human MetAP2 enzyme [1] and against human MetAP2 enzyme [2] were 20 nM and 100 nM, respectively.
Take `Cc1onc(N)c1-c1cc(C(F)(F)F)cc2[nH]ncc12` [Example 166, 5-methyl-4-(6-(trifluoromethyl)-1H-indazol-4-yl)isoxazol-3-amine]: the IC50 on human MetAP2 enzyme [1] is 39.8 nM; against human MetAP2 enzyme [2], 794 nM.
The like results for `NS(=O)(=O)c1cncc(-c2cc(C(F)(F)F)cc3[nH]ncc23)c1` [Example 346, 5-(6-(trifluoromethyl)-1H-indazol-4-yl)pyridine-3-sulfonamide] were, in that order, 5.01 nM and 100 nM.
The like results for `Cc1ccc(C(=O)N2CCC(O)C2)cc1-c1cc(C(F)(F)F)cc2[nH]ncc12` (stereo not drawn) [Example 370, (3-hydroxypyrrolidin-1-yl)(4-methyl-3-(6-(trifluoromethyl)-1H-indazol-4-yl)phenyl)methanone] were, in that order, 31.6 nM and 126 nM.
The corresponding values for `Cc1nn(CC(=O)N2CCOCC2)c(C)c1-c1cc(C(F)(F)F)cc2[nH]ncc12` [Example 317, 2-(3,5-dimethyl-4-(6-(trifluoromethyl)-1H-indazol-4-yl)-1H-pyrazol-1-yl)-1-morpholinoethanone] are 20 nM and 63.1 nM.
For the compound `FC(F)(F)c1cc(-c2c[nH]c3ncncc23)c2cn[nH]c2c1` [Example 155, 5-(6-(trifluoromethyl)-1H-indazol-4-yl)-7H-pyrrolo[2,3-d]pyrimidine], the half-maximal inhibitory concentration (IC50) against human MetAP2 enzyme [1] was 15.8 nM; against human MetAP2 enzyme [2] it was 63.1 nM.
The corresponding values for `COc1nc(C(=O)NCCO)ccc1-c1cc(C(F)(F)F)cc2[nH]ncc12` [Example 394, N-(2-hydroxyethyl)-6-methoxy-5-(6-(trifluoromethyl)-1H-indazol-4-yl)picolinamide] are 5.01 nM and 31.6 nM.
`FC(F)(F)c1cc(-c2cnc3[nH]ccc3c2)c2cn[nH]c2c1` [Example 59, 4-(1H-pyrrolo[2,3-b]pyridin-5-yl)-6-(trifluoromethyl)-1H-indazole]: the half-inhibitory concentration (IC50) is 12.6 nM on human MetAP2 enzyme [1] and 79.4 nM at human MetAP2 enzyme [2].
The corresponding values for `NCC(O)c1ccccc1-c1cc(C(F)(F)F)cc2[nH]ncc12` (stereo not drawn) [Example 205, 2-amino-1-(2-(6-(trifluoromethyl)-1H-indazol-4-yl)phenyl)ethanol] are 12.6 nM and 1260 nM.
Consider `Cc1cnc(N)c(-c2cc(C(F)(F)F)cc3[nH]ncc23)c1` [Example 193, 5-methyl-3-(6-(trifluoromethyl)-1H-indazol-4-yl)pyridin-2-amine], for which the IC50 is 6.31 nM against human MetAP2 enzyme [1] and 63.1 nM on human MetAP2 enzyme [2].
For `FC(F)(F)COc1ncccc1-c1cc(C(F)(F)F)cc2[nH]ncc12` [Example 100, 4-(2-(2,2,2-trifluoroethoxy)pyridin-3-yl)-6-(trifluoromethyl)-1H-indazole], the IC50 was 15.8 nM at human MetAP2 enzyme [1] and 200 nM at human MetAP2 enzyme [2].
The corresponding values for `CCOc1ncccc1-c1cc(C(F)(F)F)cc2[nH]ncc12` [Example 133, 4-(2-ethoxypyridin-3-yl)-6-(trifluoromethyl)-1H-indazole] are 10 nM and 63.1 nM.
The like results for `Cc1nn(CCN)c(C)c1-c1cc(C(F)(F)F)cc2[nH]ncc12` [Example 176, 2-(3,5-dimethyl-4-(6-(trifluoromethyl)-1H-indazol-4-yl)-1H-pyrazol-1-yl)ethanamine] were, in that order, 12.6 nM and 39.8 nM.
In the case of `COCCOc1ccc(-c2cc(C(F)(F)F)cc3[nH]ncc23)c(C)n1` [Example 362, 4-(6-(2-methoxyethoxy)-2-methylpyridin-3-yl)-6-(trifluoromethyl)-1H-indazole], the IC50 is 15.8 nM on human MetAP2 enzyme [1] and 39.8 nM against human MetAP2 enzyme [2].
Consider `OCc1ccc(-c2cc(C(F)(F)F)cc3[nH]ncc23)cc1` [Example 11, (4-(6-(trifluoromethyl)-1H-indazol-4-yl)phenyl)methanol], for which the results for the IC50 against human MetAP2 enzyme [1] and against human MetAP2 enzyme [2] were 3.16 nM and 31.6 nM, respectively.
The corresponding values for `COc1nc(C#N)ccc1-c1cc(C(F)(F)F)cc2[nH]ncc12` [Example 396, 6-methoxy-5-(6-(trifluoromethyl)-1H-indazol-4-yl)picolinonitrile] are 12.6 nM and 126 nM.
As to `NC(=O)c1ccc(-c2cc(C(F)(F)F)cc3[nH]ncc23)cn1` [Example 251, 5-(6-(trifluoromethyl)-1H-indazol-4-yl)picolinamide], the half-inhibitory concentration (IC50) against human MetAP2 enzyme [1] was 5.01 nM; against human MetAP2 enzyme [2], 63.1 nM.
The corresponding values for `Cc1ncccc1-c1cc(C(F)(F)F)cc2[nH]ncc12` [Example 50, 4-(2-methylpyridin-3-yl)-6-(trifluoromethyl)-1H-indazole] are 5.01 nM and 31.6 nM.
The like results for `COc1cccc(-c2cc(C(F)(F)F)cc3[nH]ncc23)n1` [Example 91, 4-(6-methoxypyridin-2-yl)-6-(trifluoromethyl)-1H-indazole] were, in that order, 6.31 nM and 200 nM.

(Values after patent US9434743B2, “Indazole derivatives” (TAKEDA PHARMACEUTICAL COMPANY LIMITED, priority 2012, dated 2016).)
